Source: US7906506B2, “Substituted chiral fused [1,2] imidazo [4,5-c] ring compounds and methods” (3M Innovative Properties Company, priority 2006, dated 2011)

melting point	Structure (SMILES)
218 to 223 °C	CC1OC[C@H](C)n2c1nc1c(N)nc3ccccc3c12 (stereo partly drawn) [Example 1, (11S)-8,11-Dimethyl-10,11-dihydro-8H-[1,4]oxazino[4′,3′:1,2]imidazo[4,5-c]quinolin-6-amine]
243 to 268 °C	CCCC1OC[C@H](C)n2c1nc1c(N)nc3ccccc3c12 (stereo partly drawn) [Example 2, (11S)-1-Methyl-8-propyl-10,11-dihydro-8H-[1,4]oxazino[4′,3′:1,2]imidazo[4,5-c]quinolin-6-amine]
